Data on 19 compounds can be found in patent publication US8785457B2 (Cellzome Limited, priority 2009, dated 2014).

Test [1] addresses T1, mTOR (Homo sapiens, UniProt P42345).
T1 construct: endogenous in cells; host or cells: Jurkat, clone E6-1 (ATCC TIB-152) cell lysate
The experiment in a line: mTOR kinobeads assay (competitive binding in Jurkat cell lysate, immunodetection). The gist of the method:
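IC50 derived from dose-response curves of mTOR captured on immobilized phenylmorpholin-chromen beads, detected by antibody dot blot with infrared fluorescence.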

Test [2] addresses T2, PI3Kalpha (PI3Ka) (Homo sapiens, UniProt P42336).
T2 construct: endogenous in cells; host or cells: cell lysate
Kind of test: kinobeads assay, PI3Kalpha. The class given is binding. The gist of the method:
(§1)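 Competitive pull-down in cell lysate: compound (various conc.) + phenylmorpholin-chromen affinity beads, incubate, separate beads, elute. Multiplexed immunodetection of bound kinases; dose-response fit → IC50.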

The target in test [3] is T3, PI3 Kgamma (PI3 Kg) (Homo sapiens, UniProt P48736).
T3 construct: endogenous in cells; host or cells: cell lysate
The experiment in a line: kinobeads assay, PI3Kgamma. The class given is binding. In a few lines: as §1

Test [4] concerns S6RP serine-240/244 phosphorylation. The experiment in a line: In vitro Phospho-S6 cellular assay (pS6RP S240/244) in HEK293T/17 cells. The class given is cell-based. As to conditions: Homo sapiens, 2 hours, read-out: pS6 IC50. In a few lines: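 Compounds were tested at eight concentrations on adhered HEK293T/17 cells for 2 h at 37 °C (2% FCS, 0.1% DMSO), at 80,000 cells/well for pAkt S473 and 40,000 for pS6RP S240/244. Lysates were captured on phospho-specific antibody MSD plates with Sulfo-Tag detection. Values came from nonlinear variable-slope regression.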

Setting [5] is: kinobeads assay, Table 4, read-out: Inhibition values (IC50) mTor.
Where [6] appears, read: kinobeads assay, Table 6, read-out: Inhibition values (IC50) mTOR.
Where [7] appears, read: kinobeads assay, Table 6, read-out: Inhibition values (IC50) PI3Ka.
The mark [8] stands for this setting: kinobeads assay, Table 6, read-out: Inhibition values (IC50) PI3Kg.
The mark [9] stands for this setting: Further Kinobeads Data, read-out: mTor.
Where [10] appears, read: Further Kinobeads Data, read-out: PI3Kg.
The mark [11] stands for this setting: Further Kinobeads Data, read-out: PI3Ka.

Where two headings read alike, the source gives them in different places.

T2 sequence (P42336 whole entry): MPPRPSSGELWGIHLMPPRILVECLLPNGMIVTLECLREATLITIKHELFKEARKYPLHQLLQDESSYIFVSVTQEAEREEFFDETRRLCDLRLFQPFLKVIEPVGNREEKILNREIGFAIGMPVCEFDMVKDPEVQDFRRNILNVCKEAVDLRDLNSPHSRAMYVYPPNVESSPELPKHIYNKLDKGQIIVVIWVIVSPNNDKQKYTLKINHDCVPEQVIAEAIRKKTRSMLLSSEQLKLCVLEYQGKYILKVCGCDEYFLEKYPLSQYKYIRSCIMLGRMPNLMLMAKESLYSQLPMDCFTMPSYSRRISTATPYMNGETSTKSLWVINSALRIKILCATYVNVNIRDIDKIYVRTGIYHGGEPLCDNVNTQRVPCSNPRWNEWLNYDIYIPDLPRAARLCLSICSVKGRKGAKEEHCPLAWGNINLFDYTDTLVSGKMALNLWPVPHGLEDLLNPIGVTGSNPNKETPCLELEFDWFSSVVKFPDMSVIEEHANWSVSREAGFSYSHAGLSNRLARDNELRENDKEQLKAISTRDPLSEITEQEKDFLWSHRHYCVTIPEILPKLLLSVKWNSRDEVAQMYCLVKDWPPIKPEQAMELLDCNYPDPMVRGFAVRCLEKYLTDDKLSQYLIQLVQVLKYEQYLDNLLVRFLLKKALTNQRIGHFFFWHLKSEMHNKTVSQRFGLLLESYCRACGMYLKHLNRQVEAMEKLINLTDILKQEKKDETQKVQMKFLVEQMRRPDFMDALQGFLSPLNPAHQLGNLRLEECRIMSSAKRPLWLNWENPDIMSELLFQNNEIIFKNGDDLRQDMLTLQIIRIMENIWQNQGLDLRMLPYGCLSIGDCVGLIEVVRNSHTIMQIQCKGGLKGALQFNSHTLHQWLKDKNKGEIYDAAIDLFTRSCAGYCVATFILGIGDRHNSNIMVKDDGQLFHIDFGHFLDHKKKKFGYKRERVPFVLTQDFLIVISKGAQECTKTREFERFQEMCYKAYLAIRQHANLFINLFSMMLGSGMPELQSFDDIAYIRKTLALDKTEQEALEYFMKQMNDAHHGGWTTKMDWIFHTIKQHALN
T2 sequence (P27986 whole entry partner): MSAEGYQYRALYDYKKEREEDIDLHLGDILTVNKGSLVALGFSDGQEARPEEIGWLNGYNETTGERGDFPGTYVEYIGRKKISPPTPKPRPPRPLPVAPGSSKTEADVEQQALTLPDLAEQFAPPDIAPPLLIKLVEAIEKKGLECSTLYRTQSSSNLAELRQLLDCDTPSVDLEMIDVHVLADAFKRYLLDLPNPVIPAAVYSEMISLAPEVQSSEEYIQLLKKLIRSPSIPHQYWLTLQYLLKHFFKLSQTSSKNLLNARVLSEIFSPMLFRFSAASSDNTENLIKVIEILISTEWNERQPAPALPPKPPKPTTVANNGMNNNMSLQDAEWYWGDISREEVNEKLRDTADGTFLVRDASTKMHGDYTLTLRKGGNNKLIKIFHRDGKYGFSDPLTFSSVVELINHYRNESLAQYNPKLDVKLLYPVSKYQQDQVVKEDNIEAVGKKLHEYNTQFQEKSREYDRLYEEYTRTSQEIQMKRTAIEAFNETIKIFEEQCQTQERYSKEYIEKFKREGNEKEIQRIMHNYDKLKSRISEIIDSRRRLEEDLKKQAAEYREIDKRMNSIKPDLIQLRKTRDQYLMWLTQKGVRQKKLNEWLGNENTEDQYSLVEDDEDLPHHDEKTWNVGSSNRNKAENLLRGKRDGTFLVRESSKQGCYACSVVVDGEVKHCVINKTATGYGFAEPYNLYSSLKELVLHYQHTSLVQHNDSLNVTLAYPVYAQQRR
T3 sequence (P48736 whole entry): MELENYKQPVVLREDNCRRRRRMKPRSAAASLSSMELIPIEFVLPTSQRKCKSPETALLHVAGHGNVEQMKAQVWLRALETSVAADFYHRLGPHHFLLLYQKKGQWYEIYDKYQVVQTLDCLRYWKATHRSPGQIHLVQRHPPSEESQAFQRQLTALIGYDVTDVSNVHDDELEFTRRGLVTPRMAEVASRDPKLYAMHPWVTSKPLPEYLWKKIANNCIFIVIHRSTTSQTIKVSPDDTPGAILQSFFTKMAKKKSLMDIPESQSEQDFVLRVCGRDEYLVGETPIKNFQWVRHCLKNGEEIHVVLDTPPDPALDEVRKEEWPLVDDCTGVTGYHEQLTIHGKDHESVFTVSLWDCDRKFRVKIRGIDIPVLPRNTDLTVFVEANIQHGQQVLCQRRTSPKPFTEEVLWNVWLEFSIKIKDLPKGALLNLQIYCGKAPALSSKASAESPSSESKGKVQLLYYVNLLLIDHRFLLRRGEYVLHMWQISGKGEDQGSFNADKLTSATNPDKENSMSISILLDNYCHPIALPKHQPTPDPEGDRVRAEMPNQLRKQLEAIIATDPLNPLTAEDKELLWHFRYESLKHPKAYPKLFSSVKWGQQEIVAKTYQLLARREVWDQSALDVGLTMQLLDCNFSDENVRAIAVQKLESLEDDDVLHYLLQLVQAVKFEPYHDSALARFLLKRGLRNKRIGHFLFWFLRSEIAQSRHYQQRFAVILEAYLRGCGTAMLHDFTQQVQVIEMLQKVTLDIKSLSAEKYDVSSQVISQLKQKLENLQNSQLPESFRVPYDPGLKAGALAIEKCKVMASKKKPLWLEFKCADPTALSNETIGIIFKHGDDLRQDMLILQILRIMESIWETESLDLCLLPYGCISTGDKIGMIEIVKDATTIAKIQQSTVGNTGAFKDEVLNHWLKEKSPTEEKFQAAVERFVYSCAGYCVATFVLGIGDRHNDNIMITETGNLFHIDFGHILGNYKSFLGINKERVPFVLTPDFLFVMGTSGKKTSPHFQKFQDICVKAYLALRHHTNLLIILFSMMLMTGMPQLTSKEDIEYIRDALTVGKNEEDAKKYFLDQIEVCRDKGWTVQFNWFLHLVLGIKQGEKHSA

For the compound `C[C@H]1COCCN1c1nc(-c2ccc(NC(=O)NC3CC3)cc2)nc2c1CCN(CC1CC1)C2` [Example 40, (S)-1-cyclopropyl-3-(4-(7-(cyclopropylmethyl)-4-(3-methylmorpholino)-5,6,7,8-tetrahydropyrido[3,4-d]pyrimidin-2-yl)phenyl)urea], the IC50 in test [1] (setting [5]) was < 0.1 µM; in test [1] (setting [6]), < 0.1 µM; in test [2] (setting [7]), 1 to 10 µM; in test [3] (setting [8]) it was 1 to 10 µM; in test [4], 0.07 µM.
Turning to `C[C@H]1COCCN1c1nc(-c2ccc(NC(=O)NC3CC3)cc2)nc2c1CCN(CC(C)(C)C)C2` [Example 41, (S)-1-cyclopropyl-3-(4-(4-(3-methylmorpholino)-7-neopentyl-5,6,7,8-tetrahydropyrido[3,4-d]pyrimidin-2-yl)phenyl)urea], the IC50 in test [1] (setting [5]) was 0.1 to 1 µM; in test [1] (setting [6]) it was 0.1 to 1 µM; in test [3] (setting [8]), > 10 µM; in test [4], 0.12 µM. In addition, in test [2] (kinobeads assay, Table 6), the “Inhibition values (IC50) PI3Ka” value is recorded as “D (D >10 μM)”.
Turning to `CC(C)CN1CCc2c(nc(-c3ccc(NC(=O)NC4CC4)cc3)nc2N2CCOC[C@@H]2C)C1` [Example 42, (S)-1-cyclopropyl-3-(4-(7-isobutyl-4-(3-methylmorpholino)-5,6,7,8-tetrahydropyrido[3,4-d]pyrimidin-2-yl)phenyl)urea], the IC50 in test [1] (setting [5]) was < 0.1 µM; in test [1] (setting [6]) it was < 0.1 µM; in test [3] (setting [8]), > 10 µM; in test [4] it was 0.104 µM. For the same compound, in test [2] (kinobeads assay, Table 6), the “Inhibition values (IC50) PI3Ka” value is “D (D >10 μM)”.
Consider `CC(C)N1CCc2c(nc(-c3ccc(NC(=O)NC4CC4)cc3)nc2N2CCOC[C@@H]2C)C1` [Example 43, (S)-1-cyclopropyl-3-(4-(7-isopropyl-4-(3-methylmorpholino)-5,6,7,8-tetrahydropyrido[3,4-d]pyrimidin-2-yl)phenyl)urea], for which the IC50 in test [1] (setting [5]) was < 0.1 µM; in test [1] (setting [6]), < 0.1 µM; in test [2] (setting [7]) it was 1 to 10 µM; in test [3] (setting [8]) it was 1 to 10 µM; in test [4] it was 0.071 µM.
Consider `C[C@H]1COCCN1c1nc(-c2ccc(NC(=O)NC3CC3)cc2)nc2c1CN(C(=O)C(C)(C)C)C2` [Example 45, (S)-1-cyclopropyl-3-(4-(4-(3-methylmorpholino)-6-pivaloyl-6,7-dihydro-5H-pyrrolo[3,4-d]pyrimidin-2-yl)phenyl)urea], for which the IC50 in test [1] (setting [5]) is 0.1 to 1 µM; in test [1] (setting [6]), 0.1 to 1 µM; in test [3] (setting [8]) it was > 10 µM; in test [4] it was 0.063 µM. Further, in test [2] (kinobeads assay, Table 6), the “Inhibition values (IC50) PI3Ka” value was “D (D >10 μM)”.
For `C[C@H]1COCCN1c1nc(-c2ccc(NC(=O)Nc3ccc(F)cc3)cc2)nc2c1CN(C)C2` [Example 52, (S)-1-(4-fluorophenyl)-3-(4-(6-methyl-4-(3-methylmorpholino)-6,7-dihydro-5H-pyrrolo[3,4-d]pyrimidin-2-yl)phenyl)urea], the IC50 in test [1] (setting [5]) was 0.1 to 1 µM; in test [1] (setting [6]) it was 0.1 to 1 µM; in test [3] (setting [8]), > 10 µM; in test [4], 0.09 µM. In addition, the “Inhibition values (IC50) PI3Ka” value in test [2] (kinobeads assay, Table 6) is “D (D >10 μM)”.
Turning to `CCNC(=O)Nc1ccc(-c2nc3c(c(N4CCOC[C@@H]4C)n2)CCN(C(=O)C2CC2)C3)cc1` [Example 56, (S)-1-(4-(7-(cyclopropanecarbonyl)-4-(3-methylmorpholino)-5,6,7,8-tetrahydropyrido[3,4-d]pyrimidin-2-yl)phenyl)-3-ethylurea], the IC50 was < 0.1 µM in test [1] (setting [5]), < 0.1 µM in test [1] (setting [6]), > 10 µM in test [3] (setting [8]) and 0.032 µM in test [4]. Besides, the “Inhibition values (IC50) PI3Ka” value in test [2] (kinobeads assay, Table 6) is on record as “D (D >10 μM)”.
`CCNC(=O)Nc1ccc(-c2nc3c(c(N4CCOC[C@@H]4C)n2)CCN(C(=O)C(C)C)C3)cc1` [Example 57, (S)-1-ethyl-3-(4-(7-isobutyryl-4-(3-methylmorpholino)-5,6,7,8-tetrahydropyrido[3,4-d]pyrimidin-2-yl)phenyl)urea]: the IC50 is < 0.1 µM in test [1] (setting [5]), < 0.1 µM in test [1] (setting [6]), > 10 µM in test [3] (setting [8]) and 0.032 µM in test [4]. Besides, the “Inhibition values (IC50) PI3Ka” value in test [2] (kinobeads assay, Table 6) is “D (D >10 μM)”.
`CCNC(=O)Nc1cc(F)c(-c2nc3c(c(N4CCOC[C@@H]4C)n2)CN(C(=O)OCC)C3)cc1F` [Example 141, (S)-ethyl 2-(4-(3-ethylureido)-2,5-difluorophenyl)-4-(3-methylmorpholino)-5H-pyrrolo[3,4-d]pyrimidine-6(7H)-carboxylate]: the IC50 was 1 to 10 µM in test [1] (setting [9]), > 10 µM in test [3] (setting [10]) and 0.838 µM in test [4]. Also, the PI3Ka result in test [2] (Further Kinobeads Data) is given as “D (D >10 μM)”.
The matching figures for `COC(=O)N1Cc2nc(-c3ccc(NC(=O)NC4CC4)cc3F)nc(N3CCOC[C@@H]3C)c2C1` [Example 146, (S)-methyl 2-(4-(3-cyclopropylureido)-2-fluorophenyl)-4-(3-methylmorpholino)-5H-pyrrolo[3,4-d]pyrimidine-6(7H)-carboxylate]: 0.1 to 1 µM, > 10 µM, 0.096 µM and “D (D >10 μM)”.
On the same counts, the results for `C[C@H]1COCCN1c1nc(-c2ccc(NC(=O)NC3CC3)cc2F)nc2c1CN(C)C2` [Example 147, (S)-1-cyclopropyl-3-(3-fluoro-4-(6-methyl-4-(3-methylmorpholino)-6,7-dihydro-5H-pyrrolo[3,4-d]pyrimidin-2-yl)phenyl)urea] are < 0.1 µM, > 10 µM, 0.282 µM and “D (D >10 μM)”.
As for `CCNC(=O)Nc1ccc(-c2nc3c(c(N4CCOCC4)n2)CN(C(=O)OCC)C3)c(F)c1` [Example 151, Ethyl 2-(4-(3-ethylureido)-2-fluorophenyl)-4-morpholino-5H-pyrrolo[3,4-d]pyrimidine-6(7H)-carboxylate], the IC50 in test [1] (setting [9]) was 0.1 to 1 µM; in test [2] (setting [11]), 1 to 10 µM; in test [3] (setting [10]), 1 to 10 µM; in test [4], 0.153 µM.
Take `CCNC(=O)Nc1ccc(-c2nc3c(c(N4CCOC[C@@H]4C)n2)CN(C(=O)OC)C3)c(F)c1` [Example 152, (S)-methyl 2-(4-(3-ethylureido)-2-fluorophenyl)-4-(3-methylmorpholino)-5H-pyrrolo[3,4-d]pyrimidine-6-(7H)-carboxylate]: the IC50 was 0.1 to 1 µM in test [1] (setting [9]), > 10 µM in test [3] (setting [10]) and 0.093 µM in test [4]. Also, the PI3Ka entry in test [2] (Further Kinobeads Data) is given as “D (D >10 μM)”.
For the compound `CCNC(=O)Nc1ccc(-c2nc3c(c(N4CCOC[C@@H]4C)n2)CN(C(=O)OC(C)(C)C)C3)c(F)c1` [Example 153, (S)-tert-butyl 2-(4-(3-ethylureido)-2-fluorophenyl)-4-(3-methylmorpholino)-5H-pyrrolo[3,4-d]pyrimidine-6-(7H)-carboxylate], the IC50 in test [1] (setting [9]) is < 0.1 µM; in test [3] (setting [10]) it was > 10 µM; in test [4], 0.14 µM. Moreover, in test [2] (Further Kinobeads Data), the PI3Ka result was “D (D >10 μM)”.
The matching figures for `CCNC(=O)Nc1ccc(-c2nc3c(c(N4CCOCC4)n2)CN(C)C3)c(F)c1` [Example 154, 1-ethyl-3-(3-fluoro-4-(6-methyl-4-morpholino-6,7-dihydro-5H-pyrrolo[3,4-d]pyrimidin-2-yl)phenyl)urea]: 0.1 to 1 µM, > 10 µM, 0.436 µM and “D (D >10 μM)”.
On the same counts, the results for `CC(=O)N1Cc2nc(-c3ccc(NC(=O)NC4CC4)cc3F)nc(N3CCOC[C@@H]3C)c2C1` [Example 155, (S)-1-(4-(6-acetyl-4-(3-methylmorpholino)-6,7-dihydro-5H-pyrrolo[3,4-d]pyrimidin-2-yl)-3-fluorophenyl)-3-cyclopropylurea] are < 0.1 µM, > 10 µM, 0.815 µM and “D (D >10 μM)”.
On the same counts, the results for `CCOC(=O)N1Cc2nc(-c3ccc(NC(=O)NC4CC4)cc3F)nc(N3CCOCC3)c2C1` [Example 156, Ethyl 2-(4-(3-cyclopropylureido)-2-fluorophenyl)-4-morpholino-5H-pyrrolo[3,4-d]pyrimidine-6(7H)-carboxylate] are < 0.1 µM, > 10 µM, 0.135 µM and “D (D >10 μM)”.
For `CN1Cc2nc(-c3ccc(NC(=O)NC4CC4)cc3F)nc(N3CCOCC3)c2C1` [Example 159, 1-(Cyclopropyl)-3-(3-fluoro-4-(6-methyl-4-morpholino-6,7-dihydro-5H-pyrrolo[3,4-d]pyrimidin-2-yl)phenyl)urea], the IC50 in test [1] (setting [9]) was 0.1 to 1 µM; in test [2] (setting [11]) it was 1 to 10 µM; in test [3] (setting [10]), > 10 µM; in test [4], 0.271 µM.
Regarding `CCNC(=O)Nc1ccc(-c2nc3c(c(N4CCOC[C@@H]4C)n2)CN(C)C3)c(F)c1` [Example 160, (S)-1-ethyl-3-(3-fluoro-4-(6-methyl-4-(3-methylmorpholino)-6,7-dihydro-5H-pyrrolo[3,4-d]pyrimidin-2-yl)phenyl)urea], the IC50 was < 0.1 µM in test [1] (setting [9]), > 10 µM in test [3] (setting [10]) and 0.355 µM in test [4]. Also, the PI3Ka entry in test [2] (Further Kinobeads Data) is “D (D >10 μM)”.
